Measurements as given in patent US20210137117A1, “HERBICIDAL MIXTURES” (Bayer Aktiengesellschaft, priority 2017, published 2021).
Values joined by “and” are separate entries in the source; they are usually repeats but may differ in a detail not shown here. Equal values may be shown once.

Tests used:
Test in all cases: Pre-emergence action against weeds (greenhouse)
Assay type in all cases: in vivo
[1] = system: ALOMY—resistant (Alopecurus myosuroides)
Description: (§1) Depending on the trial conditions, the soil of the standard field soil is sterile or not sterile.
(§2) The amount of water used for spray application was 300l/ha.
ALOMY—resistant (Alopecurus myosuroides) resistant to herbicidally active compounds of the HRAC groups A and B; population mixture of field origin having increased metabolic resistance (IMR) and some target site resistance (TSR).
(§3) Insofar as herbicidal effects of the compositions according to the invention compared to mixtures of the prior art or compared to components applied individually against economically important mono- and dicotyledonous harmful plants were the centre of attention, the synergistic herbicidal activities were calculated using Colby's formula (cf. S. R. Colby; Weeds 15 (1967), 20-22): […]

[2] = system: LOLRI—resistant (Lolium rigidum)
Description: as §1, §2
LOLRI—resistant (Lolium rigidum) resistant to herbicidally active compounds of the HRAC groups A and B; population mixture of field origin having increased metabolic resistance (IMR) and some target site resistance (TSR).
as §3

[3] = system: ALOMY—sensitive (Alopecurus myosuroides)
Description: as §1, §2
ALOMY—sensitive (Alopecurus myosuroides) sensitive to customary herbicidally active compounds.
as §3

[4] = system: TRZAS (Triticum aestivum)
Description: as §1, §2
TRZAS (Triticum aestivum)—Wheat, spring
as §3

[5] = system: SORHA (Sorghum halepense)
Description: as §1, §2
SORHA (Sorghum halepense)—Johnsongrass
as §3

EMEAU (Emex australis) = system: EMEAU (Emex australis)
Description: as §1, §2
EMEAU (Emex australis)—Cathead
as §3

[6] = system: LOLRI—sensitive (Lolium rigidum)
Description: as §1, §2
LOLRI—sensitive (Lolium rigidum) sensitive to customary herbicidally active compounds.
as §3

[7] = system: VERHE (Veronica hederaefolia)
Description: as §1, §2
VERHE (Veronica hederaefolia)—Speedwell, iveleaf
as §3

[8] = pre-emergence, dose 100 g AS/ha

CC1(C)CON(Cc2ccc(Cl)cc2Cl)C1=O [2-[(2,4-dichlorophenyl)methyl]-4,4-dimethyl-3-isoxazolidinone]
herbicidal action ([1]; 500 g AS/ha): 95%
Herbicidal action ALOMY resistant [1, 8]: 60
herbicidal action ([2]; 10 g AS/ha): 0%
herbicidal action ([2]; 25 g AS/ha): 5%
herbicidal action ([2]; 50 g AS/ha): 60% and 30%
herbicidal action ([2]; 100 g AS/ha): 70% and 75%
herbicidal action ([2]; 200 g AS/ha): 80%
herbicidal action ([2]; 250 g AS/ha): 80%
herbicidal action ([2]; 400 g AS/ha): 94%
herbicidal action ([2]; 500 g AS/ha): 94%
Herbicidal action LOLRI resistant [2, 8]: 75
herbicidal action ([3]; 10 g AS/ha): 0%
herbicidal action ([3]; 25 g AS/ha): 0%
herbicidal action ([3]; 50 g AS/ha): 20%
herbicidal action ([3]; 100 g AS/ha): 60%
herbicidal action ([3]; 200 g AS/ha): 95%
herbicidal action ([3]; 250 g AS/ha): 93%
herbicidal action ([3]; 400 g AS/ha): 95%
herbicidal action ([3]; 500 g AS/ha): 95%
Herbicidal action ALOMY sensitive [3, 8]: 60
herbicidal action ([4]; 10 g AS/ha): 0%
herbicidal action ([4]; 25 g AS/ha): 0%
herbicidal action ([4]; 50 g AS/ha): 0%
herbicidal action ([4]; 100 g AS/ha): 5%
herbicidal action ([4]; 200 g AS/ha): 40%
herbicidal action ([4]; 250 g AS/ha): 50%
herbicidal action ([4]; 400 g AS/ha): 60%
herbicidal action ([4]; 500 g AS/ha): 70%
Herbicidal action (crop damage) TRZAS [4, 8]: 5
herbicidal action ([5]; 10 g AS/ha): 0%
herbicidal action ([5]; 25 g AS/ha): 0%
herbicidal action ([5]; 50 g AS/ha): 30%
herbicidal action ([5]; 100 g AS/ha): 40%
herbicidal action ([5]; 200 g AS/ha): 60%
Herbicidal action SORHA [5, 8]: 40
herbicidal action (EMEAU (Emex australis); 10 g AS/ha): 0%
herbicidal action (EMEAU (Emex australis); 25 g AS/ha): 0%
herbicidal action (EMEAU (Emex australis); 50 g AS/ha): 10%
herbicidal action (EMEAU (Emex australis); 200 g AS/ha): 40%
herbicidal action (EMEAU (Emex australis); 250 g AS/ha): 60%
herbicidal action (EMEAU (Emex australis); 400 g AS/ha): 70%
herbicidal action (EMEAU (Emex australis); 500 g AS/ha): 70%
Herbicidal action EMEAU (EMEAU (Emex australis); [8]): 20
herbicidal action ([6]; 10 g AS/ha): 0%
herbicidal action ([6]; 25 g AS/ha): 30%
herbicidal action ([6]; 50 g AS/ha): 70%
herbicidal action ([6]; 100 g AS/ha): 70%
herbicidal action ([6]; 200 g AS/ha): 90%
herbicidal action ([6]; 250 g AS/ha): 95%
herbicidal action ([6]; 400 g AS/ha): 95%
herbicidal action ([6]; 500 g AS/ha): 95%
Herbicidal action LOLRI sensitive [6, 8]: 70
herbicidal action ([7]; 10 g AS/ha): 15%
herbicidal action ([7]; 25 g AS/ha): 40%
herbicidal action ([7]; 50 g AS/ha): 70%
herbicidal action ([7]; 100 g AS/ha): 80%
herbicidal action ([7]; 200 g AS/ha): 90%
herbicidal action ([7]; 250 g AS/ha): 95%
herbicidal action ([7]; 400 g AS/ha): 95%
herbicidal action ([7]; 500 g AS/ha): 95%
Herbicidal action VERHE [7, 8]: 80
